From the NIST ThermoML archive (doi:10.1016/j.jct.2017.06.008)
Where “and” joins values, the source holds several entries; their conditions need not be identical. Identical values can stand only once. ± gives the expanded uncertainty stated by the source.

Tests used:
[1] = 100 kPa, Liquid; for speed of sound: Frequency=3 MHz, Single path-length method; for mass density: Vibrating tube method
[2] = refractive index (Na D-line) (dimensionless); details: 100 kPa, Liquid, Standard Abbe refractometry
[3] = refractive index (Na D-line) (dimensionless); xn = mol fraction of the nth substance listed; details: 100 kPa, Liquid, Standard Abbe refractometry, x2 = 0
[4] = xn = mol fraction of the nth substance listed; details: 100 kPa, Liquid, x2 = 0; for speed of sound: Frequency=3 MHz, Single path-length method; for mass density: Vibrating tube method

Row | SMILES | speed of sound ([1]; 293.15 K) | mass density ([1]; 293.15 K) | speed of sound ([1]; 303.15 K) | mass density ([1]; 303.15 K) | speed of sound ([1]; 313.15 K) | mass density ([1]; 313.15 K) | refractive index ([2]; 293.15 K) | refractive index ([2]; 303.15 K) | refractive index ([2]; 313.15 K) | refractive index ([3]; 293.15 K) | refractive index ([3]; 303.15 K) | refractive index ([3]; 313.15 K) | speed of sound ([4]; 293.15 K) | mass density ([4]; 293.15 K) | speed of sound ([4]; 303.15 K) | mass density ([4]; 303.15 K) | speed of sound ([4]; 313.15 K) | mass density ([4]; 313.15 K)
1 | CC(=O)CC(C)C [4-methylpentan-2-one] | 1212.3 ± 1.6 m/s | 801 ± 3 kg/m3 and 800 ± 3 kg/m3 | 1171.4 ± 1.6 m/s | 792 ± 3 kg/m3 | 1131.4 ± 1.6 m/s | 782 ± 3 kg/m3 | 1.396 ± 0.005 | 1.391 ± 0.005 | 1.387 ± 0.005 | – | – | – | – | – | – | – | – | –
2 | CC(C)=O [acetone] | 1184.3 ± 1.4 m/s | 790 ± 3 kg/m3 | 1139.4 ± 1.4 m/s | 779 ± 3 kg/m3 | 1094.6 ± 1.4 m/s | 767 ± 3 kg/m3 | 1.359 ± 0.005 | 1.353 ± 0.005 | 1.348 ± 0.005 | – | – | – | – | – | – | – | – | –
3 | CC(C)=O [acetone] + CC(=O)CC(C)C | – | – | – | – | – | – | – | – | – | 1.359 ± 0.005 | 1.353 ± 0.005 | 1.348 ± 0.005 | 1184.3 ± 1.4 m/s | 790 ± 3 kg/m3 | 1139.4 ± 1.4 m/s | 779 ± 3 kg/m3 | 1094.6 ± 1.4 m/s | 767 ± 3 kg/m3
4 | CC#N [acetonitrile] | 1299.7 ± 1.3 m/s | 782 ± 3 kg/m3 | 1258.8 ± 1.3 m/s | 771 ± 3 kg/m3 | 1218.4 ± 1.3 m/s | 760 ± 3 kg/m3 | 1.344 ± 0.005 | 1.339 ± 0.005 | 1.334 ± 0.005 | – | – | – | – | – | – | – | – | –
5 | CC#N [acetonitrile] + CC(=O)CC(C)C | – | – | – | – | – | – | – | – | – | 1.344 ± 0.005 | 1.339 ± 0.005 | 1.334 ± 0.005 | 1299.7 ± 1.3 m/s | 782 ± 3 kg/m3 | 1258.8 ± 1.3 m/s | 771 ± 3 kg/m3 | 1218.4 ± 1.3 m/s | 760 ± 3 kg/m3
6 | C1CCCCC1 [cyclohexane] | 1279.5 ± 1.4 m/s | 779 ± 3 kg/m3 and 778 ± 3 kg/m3 | 1230.1 ± 1.4 m/s | 769 ± 3 kg/m3 | 1181.8 ± 1.4 m/s | 760 ± 3 kg/m3 and 759 ± 3 kg/m3 | 1.426 ± 0.005 | 1.421 ± 0.005 | 1.415 ± 0.005 | – | – | – | – | – | – | – | – | –
7 | C1CCCCC1 [cyclohexane] + CC(=O)CC(C)C | – | – | – | – | – | – | – | – | – | 1.426 ± 0.005 | 1.421 ± 0.005 | 1.415 ± 0.005 | 1279.5 ± 1.4 m/s | 779 ± 3 kg/m3 | 1230.1 ± 1.4 m/s | 769 ± 3 kg/m3 | 1181.8 ± 1.4 m/s | 760 ± 3 kg/m3
8 | C[S+](C)[O-] [dimethyl sulfoxide] | 1504.7 ± 1.4 m/s | 1100 ± 3 kg/m3 | 1471 ± 1.4 m/s | 1090 ± 3 kg/m3 | 1437.4 ± 1.4 m/s | 1080 ± 3 kg/m3 | 1.48 ± 0.005 and 1.479 ± 0.005 | 1.475 ± 0.005 | 1.47 ± 0.005 | – | – | – | – | – | – | – | – | –
9 | C[S+](C)[O-] [dimethyl sulfoxide] + CC(=O)CC(C)C | – | – | – | – | – | – | – | – | – | 1.48 ± 0.005 | 1.475 ± 0.005 | 1.47 ± 0.005 | 1504.7 ± 1.4 m/s | 1100 ± 3 kg/m3 | 1471 ± 1.4 m/s | 1090 ± 3 kg/m3 | 1437.4 ± 1.4 m/s | 1080 ± 3 kg/m3
